Data set [1] has as its target T1, human androgen receptor (hAR) (Homo sapiens, UniProt P10275).
T1 construct: expressed in transfected cells; host or cells: Chinese hamster ovary cells (CHO)
T1 sequence (P10275 1-920): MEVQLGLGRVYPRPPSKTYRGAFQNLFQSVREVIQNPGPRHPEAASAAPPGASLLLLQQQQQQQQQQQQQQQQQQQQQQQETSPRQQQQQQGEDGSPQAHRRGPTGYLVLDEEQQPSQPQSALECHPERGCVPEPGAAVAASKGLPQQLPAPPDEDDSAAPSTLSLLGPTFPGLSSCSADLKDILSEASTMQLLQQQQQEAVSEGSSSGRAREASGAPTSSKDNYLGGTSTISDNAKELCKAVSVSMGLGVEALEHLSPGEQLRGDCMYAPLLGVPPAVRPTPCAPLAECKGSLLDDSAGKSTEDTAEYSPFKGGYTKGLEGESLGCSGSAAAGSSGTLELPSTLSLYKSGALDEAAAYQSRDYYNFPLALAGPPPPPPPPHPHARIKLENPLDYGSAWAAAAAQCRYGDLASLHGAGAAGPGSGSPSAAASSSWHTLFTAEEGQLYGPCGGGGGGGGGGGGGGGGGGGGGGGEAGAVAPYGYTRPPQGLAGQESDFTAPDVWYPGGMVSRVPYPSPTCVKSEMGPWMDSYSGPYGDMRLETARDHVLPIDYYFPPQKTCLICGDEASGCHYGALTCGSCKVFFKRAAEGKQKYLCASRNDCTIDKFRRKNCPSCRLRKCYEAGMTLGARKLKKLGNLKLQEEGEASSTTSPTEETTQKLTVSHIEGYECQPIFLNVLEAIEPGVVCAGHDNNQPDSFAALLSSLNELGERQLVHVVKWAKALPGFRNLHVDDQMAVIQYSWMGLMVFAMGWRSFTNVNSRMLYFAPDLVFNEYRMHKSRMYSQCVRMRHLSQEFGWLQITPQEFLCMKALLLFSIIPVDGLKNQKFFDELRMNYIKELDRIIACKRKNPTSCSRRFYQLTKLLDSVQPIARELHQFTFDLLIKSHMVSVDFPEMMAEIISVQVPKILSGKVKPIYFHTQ
Kind of data set: Transactivative androgen activity in CHO cells transfected with hAR and MMTV-luciferase reporter, compared with 5α-dihydrotestosterone. In kind it is cell-based. Also noted: concentration or dose not given beside the values. The settings on record: incubation 16 h, 37° C., compared with the activity of 5α-dihydrotestosterone. The protocol:
The transactivative androgen activity of the compounds of the invention was measured in Chinese hamster ovary cells (CHO) transfected with the human androgen receptor (hAR), in combination with a mouse mammary tumor virus (MMTV), and luciferase […] gene (incubation time 16 h, temperature 37° C.) and compared with the activity of 5α-dihydrotestosterone [Schoonen, W. G. E. J.; de Ries, R. J. H.; Joosten, J. W. H.; Mathijssen-Mommers, G. J. W.; Kloosterboer, H. J., Analyt. Biochem. 261, 222–224 (1998)].

The conditions of data set [2]: reported in Heusser et al Helv Chim Acta Vol 22, 1949; cited from earlier work.
In a further data set the test system is human hepatocytes. In words: Determination of t1/2 (metabolic stability) after incubation with human hepatocytes. In kind it is in vitro ADME. Particulars: 100 nM compound, 0.5, 1 and 2 h, class relative to 17α-methyltestosterone and testosterone; for t1/2 Bioassay: supernatant analysed by androgenic activity bioassay (example 6). The method, then:
The half-life of a compound as a result of contact with human hepatocytes holds as a reliable indication of metabolic stability. As it is well known that the absorption of this class of steroids is high, this assay provides an in vitro model for oral activity in humans.
Hepatocytes collected from healthy young (25–45 year) male organ donors were cryo preserved in liquid nitrogen and kept there until use. They were thawed at 37° C. in a waterbath, placed immediately on ice, washed twice in one volume of cold (4° C.) incubation medium [William's medium E (without phenol red) with Glutamax I®, gentamicin 50 μg/ml, insulin 1 μM, fetal calf serum 0% (v/v)], counted and the viability checked by Trypan blue exclusion. Cells were incubated as suspensions in 96-wells (non-coated) plates at a nominal density of 3×10^4 cells/well in 300 μl medium at 37° C. with an air/CO2 mixture (95/5).
The hepatocytes were incubated with 100 nM final concentration of the compound to be tested. The incubations were stopped after 0.5, 1 and 2 h by centrifugation at 200 g. The supernatant was collected for liquid chromatography coupled to immediate mass spectroscopic analysis (LC-MS/MS analysis) and for bioassay. For the latter 10 μl was used for determination of the androgenic activity. The androgenicity was determined as described at example 6. The final compound concentration for determination of androgenic activity was 1 nmol/l.
The metabolic stability (t1/2) of the compounds of the invention were classified according to the following scheme: • (+++) metabolic stability>17α-methyltestosterone (MT) • (++) 17α-methyltestosterone>metabolic stability>80% of 17α-methyltestosterone • (+) 80% of 17α-methyltestosterone>metabolic stability>testosterone • (−) metabolic stability<testosterone Results are collected in Table 1.

Consider seven molecules from patent US7169769B2, “17α-hydroxy-14β-steroids with hormonal effect” (Akzo Nobel N.V., priority 2001, dated 2007).

For `C[C@@H]1CC2=CC(=O)CC[C@@H]2[C@H]2CC[C@]3(C)[C@H](O)CC[C@@H]3[C@@H]21` [Ref. comp. 2, (7α,14β,17α)-17-Hydroxy-7-methylestr-4-en-3-one, reference compound], in data set [1], the “Androgen activity (%)” value is reported as 60.5%. With `C[C@]12CC[C@H]3[C@@H](CCC4=CC(=O)CC[C@@]43C)[C@H]1CC[C@H]2O` [17α-hydroxy-14β-testosterone], the androgenic activity entry in data set [2] is “no androgenic activity”. As for `C[C@@H]1CC2=CC(=O)CC[C@@H]2[C@H]2CC[C@]3(C)[C@H](O)[C@H](C)C[C@@H]3[C@@H]21` [Example 2, (7α,14β,16α,17α)-17-Hydroxy-7,16-dimethylestr-4-en-3-one], the “Androgen activity (%)” value in data set [1] is given as 38.7%. Moreover, in the data set with human hepatocytes, the “t1/2 Bioassay” value is “(+ +)”. Take `CC[C@H]1C[C@@H]2[C@H]3[C@H](CC[C@]2(C)[C@@H]1O)[C@H]1CCC(=O)C=C1C[C@H]3C` [Example 4a, (7α,14β,16β,17α)-16-Ethyl-17-hydroxy-7-methylestr-4-en-3-one]: the “Androgen activity (%)” value in data set [1] stood at 20.0%. Turning to `C[C@@H]1CC2=CC(=O)CC[C@@H]2[C@H]2CC[C@@]3(C)[C@H](CC(C)(C)[C@H]3O)[C@@H]21` [Example 3, (7α,14β,17α)-17-hydroxy-7,16,16-trimethylestr-4-en-3-one], in data set [1], the “Androgen activity (%)” value came out at 78.5%. In the case of `C[C@@H]1CC2=CC(=O)CC[C@@H]2[C@H]2CC[C@]3(C)[C@H](O)[C@@H](C)C[C@@H]3[C@@H]21` [Example 1, (7α,14β,16β,17α)-17-Hydroxy-7,16-dimethylestr-4-en-3-one], the “Androgen activity (%)” value in data set [1] amounted to 99.0%. Moreover, in the data set with human hepatocytes (supernatant analysed by LC-MS/MS), the “t1/2 LC-MS/MS” value is given as “(+ +)”. For the same molecule, in the data set with human hepatocytes, the “t1/2 Bioassay” value was “(+ +)”. With `CC[C@@]1(C)C[C@@H]2[C@H]3[C@H](CC[C@]2(C)[C@@H]1O)[C@H]1CCC(=O)C=C1C[C@H]3C` [Example 4b, (7α,14β,16β,17α)-16-Ethyl-17-hydroxy-7,16-dimethylestr-4-en-3-one], in data set [1], the “Androgen activity (%)” value is listed as 24.0%.
